According to paper PMC2854261 (Analytical biochemistry, 2010):

Target: human DNA (cytosine-5)-methyltransferase I (DNMT1), Δ501DNMT1 (Homo sapiens, UniProt P26358)
Assay type: biochemical

Chain of human DNA (cytosine-5)-methyltransferase I (DNMT1), Δ501DNMT1 (P26358 502-1616, stated change not applied): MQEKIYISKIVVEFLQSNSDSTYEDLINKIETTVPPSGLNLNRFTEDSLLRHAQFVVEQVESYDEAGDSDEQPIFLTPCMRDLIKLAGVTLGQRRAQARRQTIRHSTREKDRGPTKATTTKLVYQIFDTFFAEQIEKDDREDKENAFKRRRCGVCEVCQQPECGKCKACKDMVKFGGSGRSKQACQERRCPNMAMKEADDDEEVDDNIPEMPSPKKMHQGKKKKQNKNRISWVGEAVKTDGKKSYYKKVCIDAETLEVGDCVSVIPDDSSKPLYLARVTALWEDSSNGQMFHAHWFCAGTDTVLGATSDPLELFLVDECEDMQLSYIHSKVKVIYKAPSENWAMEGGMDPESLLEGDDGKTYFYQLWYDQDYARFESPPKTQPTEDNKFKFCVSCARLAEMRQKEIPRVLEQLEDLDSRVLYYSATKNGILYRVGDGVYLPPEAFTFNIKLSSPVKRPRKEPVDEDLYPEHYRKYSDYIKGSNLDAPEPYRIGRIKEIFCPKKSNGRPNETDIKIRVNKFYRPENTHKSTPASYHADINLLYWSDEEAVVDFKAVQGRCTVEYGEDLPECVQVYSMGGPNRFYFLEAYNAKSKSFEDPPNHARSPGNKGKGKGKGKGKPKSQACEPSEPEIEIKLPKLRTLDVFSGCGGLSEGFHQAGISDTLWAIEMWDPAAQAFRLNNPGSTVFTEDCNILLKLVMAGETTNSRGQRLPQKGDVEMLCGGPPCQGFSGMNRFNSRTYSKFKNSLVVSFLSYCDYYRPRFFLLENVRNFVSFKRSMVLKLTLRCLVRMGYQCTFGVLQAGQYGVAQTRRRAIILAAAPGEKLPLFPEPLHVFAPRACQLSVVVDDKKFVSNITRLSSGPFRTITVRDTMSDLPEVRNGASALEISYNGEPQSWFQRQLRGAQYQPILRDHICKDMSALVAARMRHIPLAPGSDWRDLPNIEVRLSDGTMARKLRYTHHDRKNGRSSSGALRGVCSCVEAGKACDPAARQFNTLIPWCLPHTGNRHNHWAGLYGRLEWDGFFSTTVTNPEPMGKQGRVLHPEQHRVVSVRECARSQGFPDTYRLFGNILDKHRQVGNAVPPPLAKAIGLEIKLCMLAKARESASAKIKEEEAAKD

IC50: 3 mM
Structure (SMILES): Nc1ncnc2c1ncn2[C@@H]1O[C@H](CO)[C@@H](O)[C@H]1O [adenosine]
